One data set deals with BLK (Homo sapiens (Human), UniProt P51451). The data set can be described thus: BLK Z'-LYTE kinase assay. Particulars: 1 h pre-incubation, Km ATP. The class given is biochemical. As to the method: BMX, TXK, EGFR, ERBB2, ERBB4, JAK3, BLK kinase activity was measured using the Z′-LYTE assay at Thermo Fisher. A 10-point dose response (final concentration in assay ranged from 10 μM to 0.5 nM in 3-fold dilution per dilution step) was generated with 1 h incubation of the test compound with the kinase prior to initiation of the kinase reaction by the addition of ATP. ATP concentration in the assay was Km ATP for the different kinases. IC50 values are determined by curve fitting of the experimental results at Thermo Fisher.
Sequence of BLK (P51451 whole entry): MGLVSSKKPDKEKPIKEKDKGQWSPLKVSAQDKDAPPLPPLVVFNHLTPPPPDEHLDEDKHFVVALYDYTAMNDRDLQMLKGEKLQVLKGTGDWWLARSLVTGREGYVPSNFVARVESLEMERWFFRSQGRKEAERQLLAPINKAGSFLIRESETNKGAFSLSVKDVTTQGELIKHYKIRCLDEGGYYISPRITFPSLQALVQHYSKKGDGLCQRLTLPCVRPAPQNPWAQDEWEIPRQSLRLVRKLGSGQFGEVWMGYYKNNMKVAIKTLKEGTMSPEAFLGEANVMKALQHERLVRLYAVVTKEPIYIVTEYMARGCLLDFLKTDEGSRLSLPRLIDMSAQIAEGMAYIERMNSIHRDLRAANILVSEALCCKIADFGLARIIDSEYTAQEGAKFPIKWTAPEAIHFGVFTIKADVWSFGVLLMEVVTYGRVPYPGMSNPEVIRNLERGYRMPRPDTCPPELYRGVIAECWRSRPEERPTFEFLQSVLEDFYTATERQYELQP

In the next data set the target is BTK (Homo sapiens (Human), UniProt Q06187). Kind of data set: BTK target occupancy ELISA in Ramos B cells. The class given is cell-based. The following applies: 2h incubation. As to the method:
Ramos B cells (ATCC, cat no. CRL-1923) were plated in 24-wells culture plates at 2×10^6 cells per well in a total volume of 900 μL DMEMF12+10% FBS+2 mM L-Glutamine+Pen/Strep. Allow the cells to rest 1 h at 5-7% CO2 and 37° C. Serial dilutions log 10 from 10 mM to 316 nM of test compounds are made in 100% DMSO, followed by a 100-fold dilution into culture medium. For each well, 100 μL was then transferred to well plate containing 900 μL of Ramos B cells. Final compound concentration range in the assay varied from 10 μM to 0.316 nM, with a final DMSO concentration of 0.1% and incubated at 5-7% CO2 and 37° C. for 2h. Afterwards, cells are collected for the measurement of the BTK target occupancy using the BTK target occupancy ELISA as outlined below. The percent of drug-bound BTK in Ramos B cell samples was determined by an ELISA based method as follows: OptiPlate 96-well plates (Perkin Elmer) were coated with 125 ng/well anti-BTK Ab (BD Biosciences) and blocked with BSA (Sigma-Aldrich). […] One hundred L/well of SuperSignal ELISA Femto Substrate (ThermoFisher Scientific) was added and then chemiluminescence was measured after 1 minute (EnVision® plate reader; PerkinElmer). The percent of BTK occupancy for each sample was calculated relative to the vehicle control. […] Ramos cells were incubated with a dose range of M27 and BTK target occupancy was determined by ELISA.

Data set [1] in a line: Clinical pharmacokinetics of acalabrutinib and its major metabolite. It is filed as in vivo, human. Particulars: human, in vivo; single oral dose of 100 mg acalabrutinib; read-out: median terminal elimination half-life (t½) (converted). From the text: The compound of Formula (I) was identified as the major metabolite in plasma with a geometric mean exposure (AUC) approximately 2- to 3-fold higher than the exposure of acalabrutinib.
Acalabrutinib and the major metabolite form a covalent bond with a cysteine residue in the BTK active site, leading to inhibition of BTK enzymatic activity. Acalabrutinib binding with the cysteine residue occurs rapidly and irreversibly and provides high target occupancy at steady state.

The next data set addresses CYP2C19 (Homo sapiens (Human), UniProt P33261). Kind of data set: CYP inhibition, CYP2C19. The class given is in vitro ADME.

The text below walks through data of patent publication US10858364B2, “Imidazopyrazine inhibitors of Bruton's tyrosine kinase” (Acerta Pharma B.V., priority 2016, dated 2020).

Each structure is given as a SMILES string.

Sequence of BTK (Q06187 whole entry): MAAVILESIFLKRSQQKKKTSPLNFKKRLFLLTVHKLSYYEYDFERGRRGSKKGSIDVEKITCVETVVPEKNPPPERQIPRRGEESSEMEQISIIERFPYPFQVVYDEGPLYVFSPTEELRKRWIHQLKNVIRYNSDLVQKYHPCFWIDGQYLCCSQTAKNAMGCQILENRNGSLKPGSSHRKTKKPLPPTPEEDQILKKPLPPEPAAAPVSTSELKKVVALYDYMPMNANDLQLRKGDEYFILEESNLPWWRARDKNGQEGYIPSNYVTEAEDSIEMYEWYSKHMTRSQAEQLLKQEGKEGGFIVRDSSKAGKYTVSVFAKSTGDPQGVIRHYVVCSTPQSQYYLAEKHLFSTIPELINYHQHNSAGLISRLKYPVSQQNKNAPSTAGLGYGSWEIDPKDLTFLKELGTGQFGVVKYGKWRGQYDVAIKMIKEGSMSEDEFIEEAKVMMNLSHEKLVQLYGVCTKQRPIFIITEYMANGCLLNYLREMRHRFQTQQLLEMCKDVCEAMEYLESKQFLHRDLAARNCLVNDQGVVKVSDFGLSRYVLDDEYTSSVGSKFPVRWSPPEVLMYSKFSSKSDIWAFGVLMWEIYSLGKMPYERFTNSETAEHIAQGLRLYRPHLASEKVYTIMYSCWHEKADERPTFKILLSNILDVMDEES
Sequence of CYP2C19 (P33261 whole entry): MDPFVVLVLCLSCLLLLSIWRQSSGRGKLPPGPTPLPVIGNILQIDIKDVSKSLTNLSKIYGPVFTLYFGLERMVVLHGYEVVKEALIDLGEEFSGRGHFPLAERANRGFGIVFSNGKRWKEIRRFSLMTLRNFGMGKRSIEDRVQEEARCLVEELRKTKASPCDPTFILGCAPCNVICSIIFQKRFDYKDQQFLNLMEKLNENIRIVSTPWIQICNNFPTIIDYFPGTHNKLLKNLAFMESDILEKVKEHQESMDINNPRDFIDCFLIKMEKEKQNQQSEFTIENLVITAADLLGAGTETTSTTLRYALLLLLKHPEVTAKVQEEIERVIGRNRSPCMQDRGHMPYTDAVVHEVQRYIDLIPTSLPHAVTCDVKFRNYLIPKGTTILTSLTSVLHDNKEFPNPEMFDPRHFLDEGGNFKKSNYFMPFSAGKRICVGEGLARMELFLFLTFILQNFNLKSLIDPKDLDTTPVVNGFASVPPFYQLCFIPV

As to `CC#CC(=O)NCCCC(=O)c1nc(-c2ccc(C(=O)Nc3ccccn3)cc2)c2c(N)nccn12` [Formula (I), 4-(8-amino-3-(4-(but-2-ynamido)butanoyl)imidazo[1,5-a]pyrazin-1-yl)-N-(pyridin-2-yl)benzamide], the 50% inhibitory concentration (IC50) turned out to be 6.17 ± 3.35 µM against BLK and 0.039 µM at BTK. The half-life in data set [1] was 6.9 h. Besides, the CYP2C19 inhibition result at CYP2C19 is given as “weak inhibitor”.
